Measurements taken from paper PMC12490008 (Environmental Science & Technology, 2025).

Key:
[1] = test system: River Chriesbach biofilm suspensions
[2] = test system: River Chriesbach biofilm suspension
[3] = test system: River Chriesbach biofilm suspension (100%)
[4] = test system: River Chriesbach river water
[5] = test system: River Chriesbach biofilm suspension (100%, 10%, 1%)

In the case of Anabaenopeptin D, the “biodegradability in biofilm suspensions (in words)” value [1] is reported as “did not show detectable biotransformation”.

Cyanopeptolin 963A was tested, and the “removal within 3 days” value [2] was 32-35%, the “1.3d removal, 2% metabolite” value [3] was 100% and the “1.3d removal, 10% metabolite” value [3] was 98%. The “1.3d removal, 100% metabolite” value [3] was 64%, the “Half-lives (h), 100% metabolite” value [3] was 29.6 h and the “Lag-time (h), 100% metabolite” value [3] was 29.5 h. The “1d removal, River water” value [4] was -81%, the “1d removal, 1% biofilm” value [5] was -26% and the “1d removal, 10% biofilm” value [5] was 5%. For the same substance, the “1d removal, 100% biofilm” value [5] was 56%.

Cyanopeptolin 1020 was tested, and the “detectability at day 5” value [2] was “not detectable anymore”, the “lag time (shoulder-log fitting)” value [2] was 1.6 days and the “1.3d removal, 2% metabolite” value [3] was 100%. The “1.3d removal, 10% metabolite” value [3] was 100%, the “1.3d removal, 100% metabolite” value [3] was 94% and the “Half-lives (h), 2% metabolite” value [3] was 6.2 h. The “Half-lives (h), 10% metabolite” value [3] was 8.3 h, the “Half-lives (h), 100% metabolite” value [3] was 9.9 h and the “Lag-time (h), 2% metabolite” value [3] was 5.7 h. For the same substance, the “Lag-time (h), 10% metabolite” value [3] was 8.3 h, the “Lag-time (h), 100% metabolite” value [3] was 0.4 h and the “Half-lives (h), River water” value [4] was 129.5 h. The “degradation in ambient river water” value [4] was “detectable degradation”, the “lag time, ambient river water” value [4] was 5.4 days and the “1d removal, 10% biofilm” value [5] was 31%. For the same substance, the “1d removal, 100% biofilm” value [5] was 91%, the “Half-lives (h), 1% biofilm” value [5] was 112.1 h and the “Half-lives (h), 10% biofilm” value [5] was 64.2 h. The “Half-lives (h), 100% biofilm” value [5] was 9.0 h, the “Lag-time (h), 100% biofilm” value [5] was 6.7 h and the “lag time, 1% biofilm” value [5] was 4.1 days. The “lag time, 10% biofilm” value [5] was 2.5 days.

In the case of Cyanopeptolin A, the “removal within 3 days” value [2] is reported as “more than 50%”, the “1.3d removal, 2% metabolite” value [3] is reported as 100% and the “1.3d removal, 10% metabolite” value [3] is reported as 100%. The “1.3d removal, 100% metabolite” value [3] was 97%, the “Half-lives (h), 10% metabolite” value [3] was 6.5 h and the “Half-lives (h), 100% metabolite” value [3] was 5.8 h. For the same substance, the “Lag-time (h), 10% metabolite” value [3] was 6.1 h, the “Lag-time (h), 100% metabolite” value [3] was 0.0 h and the “1d removal, River water” value [4] was 3%. The “Half-lives (h), River water” value [4] was “n.d.(decay)”, the “Lag-time (h), River water” value [4] was “n.d.(decay)” and the “1d removal, 1% biofilm” value [5] was 10%. For the same substance, the “1d removal, 10% biofilm” value [5] was 57%, the “1d removal, 100% biofilm” value [5] was 98% and the “Half-lives (h), 1% biofilm” value [5] was 105.9 h. For the same substance, the “Half-lives (h), 10% biofilm” value [5] was 35.9 h, the “Half-lives (h), 100% biofilm” value [5] was 5.1 h and the “Lag-time (h), 1% biofilm” value [5] was 89.7 h. For the same substance, the “Lag-time (h), 10% biofilm” value [5] was 0.0 h and the “Lag-time (h), 100% biofilm” value [5] was 0.8 h.

With Cyanopeptolin B the “removal within 3 days” value [2] was “more than 50%”, the “1.3d removal, 2% metabolite” value [3] was 100% and the “1.3d removal, 10% metabolite” value [3] was 100%. For the same substance, the “1.3d removal, 100% metabolite” value [3] was 96%, the “Half-lives (h), 100% metabolite” value [3] was 7.7 h and the “Lag-time (h), 100% metabolite” value [3] was 0.0 h. The “1d removal, River water” value [4] was 2%, the “1d removal, 1% biofilm” value [5] was 16% and the “1d removal, 10% biofilm” value [5] was 49%. For the same substance, the “1d removal, 100% biofilm” value [5] was 100%.

With Cyanopeptolin C the “removal within 3 days” value [2] was “more than 50%”, the “1.3d removal, 2% metabolite” value [3] was 100% and the “1.3d removal, 10% metabolite” value [3] was 100%. For the same substance, the “1.3d removal, 100% metabolite” value [3] was 82%, the “Half-lives (h), 10% metabolite” value [3] was 8.5 h and the “Half-lives (h), 100% metabolite” value [3] was 18.1 h. The “Lag-time (h), 10% metabolite” value [3] was 8.5 h, the “Lag-time (h), 100% metabolite” value [3] was 9.6 h and the “1d removal, River water” value [4] was -3%. The “1d removal, 1% biofilm” value [5] was 1%, the “1d removal, 10% biofilm” value [5] was 29% and the “1d removal, 100% biofilm” value [5] was 80%.

For Cyanopeptolin D, the “removal within 3 days” value [2] was “more than 50%”, the “1.3d removal, 2% metabolite” value [3] was 100% and the “1.3d removal, 10% metabolite” value [3] was 100%. The “1.3d removal, 100% metabolite” value [3] was 76%, the “Half-lives (h), 2% metabolite” value [3] was 7.4 h and the “Half-lives (h), 10% metabolite” value [3] was 11.1 h. The “Half-lives (h), 100% metabolite” value [3] was 27.2 h, the “Lag-time (h), 2% metabolite” value [3] was 7.3 h and the “Lag-time (h), 10% metabolite” value [3] was 10.5 h. For the same substance, the “Lag-time (h), 100% metabolite” value [3] was 27.2 h, the “1d removal, River water” value [4] was 11% and the “Half-lives (h), River water” value [4] was “n.d.(decay)”. For the same substance, the “Lag-time (h), River water” value [4] was “n.d.(decay)”, the “1d removal, 1% biofilm” value [5] was 4% and the “1d removal, 10% biofilm” value [5] was 26%. The “1d removal, 100% biofilm” value [5] was 77%, the “Half-lives (h), 100% biofilm” value [5] was 19.1 h and the “Lag-time (h), 100% biofilm” value [5] was 18.7 h.

In the case of Oscillamide Y, the “removal within 3 days” value [2] is reported as 32-35%, the “1.3d removal, 2% metabolite” value [3] is reported as 100% and the “1.3d removal, 10% metabolite” value [3] is reported as 98%. The “1.3d removal, 100% metabolite” value [3] was 51%, the “Half-lives (h), 2% metabolite” value [3] was 7.1 h and the “Half-lives (h), 10% metabolite” value [3] was 12.8 h. The “Half-lives (h), 100% metabolite” value [3] was 33.9 h, the “Lag-time (h), 2% metabolite” value [3] was 6.8 h and the “Lag-time (h), 10% metabolite” value [3] was 11.7 h. For the same substance, the “Lag-time (h), 100% metabolite” value [3] was 33.8 h, the “1d removal, River water” value [4] was -24% and the “Half-lives (h), River water” value [4] was “n.d.(decay)”. The “Lag-time (h), River water” value [4] was “n.d.(decay)”, the “expected river water half-lives” value [4] was 7.2 to 8.0 days and the “1d removal, 1% biofilm” value [5] was 1%. For the same substance, the “1d removal, 10% biofilm” value [5] was 28%, the “1d removal, 100% biofilm” value [5] was 86% and the “Half-lives (h), 1% biofilm” value [5] was 191.5 h. The “Half-lives (h), 10% biofilm” value [5] was 101.7 h, the “Half-lives (h), 100% biofilm” value [5] was 11.1 h and the “Lag-time (h), 1% biofilm” value [5] was 0.0 h. The “Lag-time (h), 10% biofilm” value [5] was 99.6 h and the “Lag-time (h), 100% biofilm” value [5] was 9.4 h.
